{
  "source": "patent US10117837B2",
  "about": "“Methods of preparing stimuli-responsive multifunctional nanoparticles” (priority 2017, dated 2018)",
  "key": {"[1]": {"tested_on": "OVCAR-3/luc orthotopic ovarian tumor", "assay": "TUNEL staining of ovarian tumor sections", "assay_type": "in vivo, nude mice", "conditions": "after 20 days of treatment", "description": "(§1) Tumors and normal ovaries from mice with different treatments were collected for histological assay after mice were sacrificed. […] paraffin tissue sections were prepared for analysis. Morphology of tumors and normal ovaries were examined by haematoxylin and eosin (H&E) staining. TUNEL staining were used for the live/dead assay in the tissue sections using DeadEnd™ Fluorometric TUNEL System (Promega, USA). Tissue sections were examined at magnification of 400× using fluorescent microscope (Zeiss, Germany).\n(§2) The therapeutic effect of the stimuli-responsive multifunctional nanoparticle of the present invention on ovarian cancer cells was further analyzed histologically after the mice were treated differently as mentioned above for 20 days and sacrificed."}, "OVCAR-3 cells [2]": {"tested_on": "OVCAR-3 cells", "assay": "Cell viability (MTS assay) in OVCAR-3 cells", "assay_type": "cell-based, human", "conditions": "OVCAR-3, 48 hours, various concentrations", "description": "(§3) The cytotoxicity and anticancer effect of the stimuli-responsive multifunctional nanoparticle of the present invention was evaluated by cell viability assay in NIH3T3 and OVCAR-3 cells. The cells were seeded in a 96-well plate at a density of 5×10^3 cells/well and incubated at 37° C. for 24 hours. Next, DOX.HCl, the HA-cys-ADOX nanoparticles, or the LHRH-HA-cys-ADOX nanoparticles dissolved in DMEM at predetermined concentrations equivalent to DOX was added to the cells. Cells treated with DMEM were the negative control group. After incubation at 37° C. for 48 hours, the cells were washed with PBS (pH 7.4). Cell viability was measured by MTS assay (CellTiter 96® AQueous One Solution Cell Proliferation Assay (Promega, USA)) according to the manufacturer's instructions and calculated as the ratio of light absorbance at […] of the experimental group to that of the negative control group."}, "NIH3T3 cells": {"tested_on": "NIH3T3 cells", "assay": "Cell viability (MTS assay) in NIH3T3 cells", "assay_type": "cell-based, mouse", "conditions": "NIH3T3, 48 hours, various concentrations", "description": "as §3"}, "OVCAR-3 cells [3]": {"tested_on": "OVCAR-3 cells", "assay": "Cellular uptake by fluorescence microscopy in OVCAR-3 cells", "assay_type": "cell-based, human", "conditions": "4 hours, equivalent to 50 mg/mL DOX", "description": "The cellular uptake of the stimuli-responsive multifunctional nanoparticle of the present invention and the intracellular drug delivery were investigated by fluorescence microscopy. Human ovarian cancer cells OVCAR-3 and mouse embryonic fibroblasts NIH3T3 were cultured to 70-80% confluence and seeded onto 4-well chamber slides (BD Falcon, USA) at a density of 1×10^5 cells/well. After incubation at 37° C. for 24 hours, DOX.HCl, the HA-cys-ADOX nanoparticles (referred to as HA NPs), or the LHRH-HA-cys-ADOX nanoparticles (referred to as LHRH NPs) dissolved in DMEM at concentrations equivalent to 50 mg/mL DOX was added to the cells for a 2-hour incubation at 37° C. Cells treated with DMEM were the negative control group (NC). Next, fluorescent dyes Lysotracker Green and DAPI in DMEM were sequentially added to the abovementioned cells to stain endosome/lysosome for 2 hours and nuclei for 1 hour. After all the reagents were removed, the cells were washed with PBS (pH 7.4) three times, followed by addition of a mounting medium to fix the cells and prevent fluorescence fading. Cells were examined using a fluorescent microscope (Zeiss, Germany)."}, "[4]": {"tested_on": "OVCAR-3/luc orthotopic ovarian tumor", "assay": "Anti-tumor effect in orthotopic ovarian tumor xenograft model, ROI size by bioluminescence imaging", "assay_type": "in vivo, nude mice", "conditions": "day 20, dose equivalent to 5 mg/kg of DOX via tail vein", "from_the_text": "The orthotopic human ovarian cancer xenograft model was established using 6-8 week old female athymic nude mice purchased from National Laboratory Animal Center (Taipei, Taiwan). All mouse procedures were approved by the Institutional Animal Care and Use Committee (IACUC) of National Tsing Hua University. Prior to surgery, the mouse was laid dorsal side up under anesthetic. The incision was made left or right of the midline and directly above the ovarian fat pad. The ovarian fat pad was gently pulled out and rested onto a sterile saline soaked gauze pad. Under a dissecting microscope, the ovary was allowed for the insertion of a 30 gauge needle into the bursa. Suspension (1×10^6) of OVCAR-3/luc cells in a maximum volume of […] was slowly injected between the bursa and the ovary. […]\nGrowth of tumor was monitored by bioluminescence imaging (BLI) using in vivo imaging system (Caliper Life Sciences). […] Prior to being monitored, the tumor-implanted mice were injected intraperitoneally with 150 mg/kg of D-luciferin substrate. The Regions of Interest (ROIs) in tumor area were selected and used for quantification of tumor size by the software provided by the Caliper Life Sciences. Volumes or sizes of ROIs were calculated as L×W^2/2, where L was the largest and W was the smallest diameter of each ROI. […]"}, "[5]": {"tested_on": "OVCAR-3/luc orthotopic ovarian tumor", "assay": "H&E staining of ovarian tumor sections", "assay_type": "in vivo, nude mice", "conditions": "after 20 days of treatment", "description": "as §1, §2"}},
  "data": [
    {"smiles": "COc1cccc2c1C(=O)c1c(O)c3c(c(O)c1C2=O)C[C@@](O)(C(=O)CO)C[C@@H]3O[C@H]1C[C@H](N)[C@H](O)[C@H](C)O1.Cl", "note": "[free DOX, doxorubicin hydrochloride]", "values": [
      {"measurement": "TUNEL fluorescence signal (apoptotic cells) in tumors", "setting": "[1]", "value": "no significant TUNEL fluorescence signal"},
      {"measurement": "cytotoxicity / anticancer effect", "setting": "OVCAR-3 cells [2]", "value": "dose-dependent"},
      {"measurement": "cytotoxicity", "setting": "NIH3T3 cells", "value": "dose-dependent"},
      {"measurement": "difference in intensity of intracellular DOX fluorescence between OVCAR-3 and NIH3T3 cells", "setting": "OVCAR-3 cells [3]", "value": "no difference"},
      {"measurement": "ROI size relative to that of the LHRH-NPs/Cy5.5-treated mice", "setting": "[4]", "value": 4.3, "unit": "fold"},
      {"measurement": "tumor cell morphology (H&E staining)", "setting": "[5]", "value": "cell proliferation with dense nuclei in random pattern"}
    ]}
  ]
}
